Key:
human orexin receptor 2 = human orexin receptor 2 (Homo sapiens (Human), UniProt O43614); assay: Orexin antagonist activity, intracellular calcium FLIPR assay, RBL-2H3 cells expressing human orexin receptor 2; type: cell-based; conditions: RBL-2H3 cells stably expressing human orexin receptor 2; orexin-A at approx. 80% maximal response; compound added 15 minutes before; read-out: Human Orexin2R IC50
human orexin receptor 1 = human orexin receptor 1 (Homo sapiens (Human), UniProt O43613); assay: Orexin antagonist activity, intracellular calcium FLIPR assay, RBL-2H3 cells expressing human orexin receptor 1; type: cell-based; conditions: RBL-2H3 cells stably expressing human orexin receptor 1; orexin-A at approx. 80% maximal response; compound added 15 minutes before; read-out: Human Orexin1R IC50
human orexin receptor 1, sequence (O43613 whole entry): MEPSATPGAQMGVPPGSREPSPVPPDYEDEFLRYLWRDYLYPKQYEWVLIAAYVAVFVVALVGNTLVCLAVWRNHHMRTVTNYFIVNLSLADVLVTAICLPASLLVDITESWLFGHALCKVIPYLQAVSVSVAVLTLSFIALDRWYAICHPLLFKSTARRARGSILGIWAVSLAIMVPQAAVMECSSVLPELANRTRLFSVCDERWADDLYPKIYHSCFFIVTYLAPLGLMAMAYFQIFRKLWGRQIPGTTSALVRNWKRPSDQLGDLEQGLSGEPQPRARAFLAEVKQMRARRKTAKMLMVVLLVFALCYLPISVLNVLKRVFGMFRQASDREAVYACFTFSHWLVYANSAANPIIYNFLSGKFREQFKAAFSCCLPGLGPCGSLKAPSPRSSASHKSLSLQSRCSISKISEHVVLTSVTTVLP

human orexin receptor 2, sequence (O43614 whole entry): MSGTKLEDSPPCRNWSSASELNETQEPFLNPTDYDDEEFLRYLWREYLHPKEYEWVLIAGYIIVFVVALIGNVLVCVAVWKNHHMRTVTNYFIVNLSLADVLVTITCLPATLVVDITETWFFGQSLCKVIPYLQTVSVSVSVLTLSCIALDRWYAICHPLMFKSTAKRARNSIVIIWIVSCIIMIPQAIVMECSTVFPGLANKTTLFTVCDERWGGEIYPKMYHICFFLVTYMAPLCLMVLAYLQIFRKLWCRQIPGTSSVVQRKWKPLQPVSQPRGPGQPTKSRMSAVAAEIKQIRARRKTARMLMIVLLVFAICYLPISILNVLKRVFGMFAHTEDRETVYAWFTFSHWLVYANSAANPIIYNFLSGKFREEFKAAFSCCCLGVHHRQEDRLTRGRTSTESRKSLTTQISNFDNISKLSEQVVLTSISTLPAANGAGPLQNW

IC50 (human orexin receptor 2)	IC50 (human orexin receptor 1)	Compound
> 10000 nM	49 nM	Cc1noc(-c2ccccc2C(=O)N[C@H]2CCC[C@@H]2Nc2cnc(C(F)(F)F)cn2)n1 [Example 15, 2-(3-Methyl-1,2,4-oxadiazol-5-yl)-N-[(1S,2S)-2-{[5-(trifluoromethyl)pyrazin-2-yl]amino}cyclopentyl]benzamide]
> 10000 nM	822 nM	O=C(N[C@H]1CCC[C@@H]1Nc1cc(C(F)(F)F)ccn1)c1ccccc1-n1nccn1 [Example 121, 2-(2H-1,2,3-Triazol-2-yl)-N-[(1S,2S)-2-{[4-(trifluoromethyl)pyridin-2-yl]amino}cyclopentyl]benzamide]
> 10000 nM	776 nM	O=C(N[C@H]1CCC[C@@H]1Nc1cnc(C(F)(F)F)cn1)c1ncccc1Br [Example 28, 3-Bromo-N-[(1S,2S)-2-{[5-(trifluoromethyl)pyrazin-2-yl]amino}cyclopentyl]pyridine-2-carboxamide]
> 10000 nM	25 nM	Cc1nc(C(F)(F)F)cnc1N[C@H]1CCC[C@@H]1NC(=O)c1ncccc1-c1ncccn1 [Example 159, N-[(1S,2S)-2-{[3-Methyl-5-(trifluoromethyl)pyrazin-2-yl]amino}cyclopentyl]-3-(pyrimidin-2-yl)pyridine-2-carboxamide]
> 10000 nM	12 nM	C[C@]1(Nc2cnc(C(F)(F)F)cn2)CCC[C@@H]1NC(=O)c1ncccc1-n1nccn1 [Example 77, N-[(1S,2S)-2-Methyl-2-{[5-(trifluoromethyl)pyrazin-2-yl]amino}cyclopentyl]-3-(2H-1,2,3-triazol-2-yl)pyridine-2-carboxamide]
> 10000 nM	14 nM	CCc1nc(C(F)(F)F)cnc1N[C@H]1CCC[C@@H]1NC(=O)c1ncccc1-n1nccn1 [Example 125, N-[(1S,2S)-2-{[3-Ethyl-5-(trifluoromethyl)pyrazin-2-yl]amino}cyclopentyl]-3-(2H-1,2,3-triazol-2-yl)pyridine-2-carboxamide]
> 10000 nM	30 nM	O=C(N[C@H]1CCC[C@@H]1Nc1ncc(C(F)(F)F)cc1F)c1ccccc1-c1ncccn1 [Example 138, N-[(1S,2S)-2-{[3-Fluoro-5-(trifluoromethyl)pyridin-2-yl]amino}cyclopentyl]-2-(pyrimidin-2-yl)benzamide]
> 10000 nM	8 nM	CC1(Nc2ccc(C(F)(F)F)cn2)CCCC1NC(=O)c1ncccc1-n1nccn1 (centres unmarked) [Example 155, N-(2-Methyl-2-{[5-(trifluoromethyl)pyridin-2-yl]amino}cyclopentyl)-3-(2H-1,2,3-triazol-2-yl)pyridine-2-carboxamide]
> 10000 nM	180 nM	O=C(N[C@H]1CCC[C@@H]1Nc1cnc(C(F)(F)F)cn1)c1c(F)cccc1C1CC1 [Example 66, 2-Cyclopropyl-6-fluoro-N-[(1S,2S)-2-{[5-(trifluoromethyl)pyrazin-2-yl]amino}cyclopentyl]benzamide]
> 10000 nM	199 nM	Cc1nnc(-c2ccccc2C(=O)N[C@H]2CCC[C@@H]2Nc2cnc(C(F)(F)F)cn2)o1 [Example 44, 2-(5-Methyl-1,3,4-oxadiazol-2-yl)-N-[(1S,2S)-2-{[5-(trifluoromethyl)pyrazin-2-yl]amino}cyclopentyl]benzamide]
> 10000 nM	67 nM	CC(C)c1cnc(N[C@H]2CCC[C@@H]2NC(=O)c2ccccc2-n2nccn2)cn1 [Example 113, N-[(1S,2S)-2-{[5-(Propan-2-yl)pyrazin-2-yl]amino}cyclopentyl]-2-(2H-1,2,3-triazol-2-yl)benzamide]
> 10000 nM	457 nM	O=C(N[C@H]1CCC[C@@H]1Nc1cnc(C(F)(F)F)cn1)c1ccccc1C(F)(F)F [Example 62, 2-(Trifluoromethyl)-N-[(1S,2S)-2-{[5-(trifluoromethyl)pyrazin-2-yl]amino}cyclopentyl]benzamide]
> 10000 nM	140 nM	C[C@]1(Nc2cnc(C(F)(F)F)cn2)CCC[C@@H]1NC(=O)c1ncccc1C1CC1 [Example 89, 3-Cyclopropyl-N-[(1S,2S)-2-methyl-2-{[5-(trifluoromethyl)pyrazin-2-yl]amino}cyclopentyl]pyridine-2-carboxamide]
> 10000 nM	35 nM	Cc1nc(C(F)(F)F)cnc1N[C@H]1CCC[C@@H]1NC(=O)c1ccccc1-c1ncccn1 [Example 79, N-[(1S,2S)-2-{[3-Methyl-5-(trifluoromethyl)pyrazin-2-yl]amino}cyclopentyl]-2-(pyrimidin-2-yl)benzamide]
> 10000 nM	19 nM	Cc1nc(C(F)(F)F)cnc1N[C@H]1CCC[C@@H]1NC(=O)c1ccccc1-n1nccn1 [Example 78, N-[(1S,2S)-2-{[3-Methyl-5-(trifluoromethyl)pyrazin-2-yl]amino}cyclopentyl]-2-(2H-1,2,3-triazol-2-yl)benzamide]
> 10000 nM	46 nM	O=C(N[C@H]1CCC[C@@H]1Nc1ccc(C(F)(F)F)cn1)c1c(F)cccc1-n1nccn1 [Example 102, 2-Fluoro-6-(2H-1,2,3-triazol-2-yl)-N-[(1S,2S)-2-{[5-(trifluoromethyl)pyridin-2-yl]amino}cyclopentyl]benzamide]

IC50 (human orexin receptor 2)	IC50 (human orexin receptor 1)	Compound
> 10000 nM	122 nM	O=C(N[C@H]1CCC[C@@H]1Nc1ccc(C(F)(F)F)cn1)c1cc(Cl)ccc1-n1nccn1 [Example 97, 5-Chloro-2-(2H-1,2,3-triazol-2-yl)-N-[(1S,2S)-2-{[5-(trifluoromethyl)pyridin-2-yl]amino}cyclopentyl]benzamide]
> 10000 nM	870 nM	COc1cccc(OC)c1C(=O)N[C@H]1CCC[C@@H]1Nc1ncc(C(F)(F)F)cn1 [Example 2, 2,6-Dimethoxy-N-[(1S,2S)-2-{[5-(trifluoromethyl)pyrimidin-2-yl]amino}cyclopentyl]benzamide]
> 10000 nM	68 nM	O=C(NC1CC(F)(F)CC1Nc1ncc(C(F)(F)F)cn1)c1ccccc1-n1nccn1 (single isomer, unassigned) [Example 127, N-(4,4-Difluoro-2-{[5-(trifluoromethyl)pyrimidin-2-yl]amino}cyclopentyl)-2-(2H-1,2,3-triazol-2-yl)benzamide]
> 10000 nM	110 nM	Cc1noc(-c2ccccc2C(=O)N[C@H]2CCC[C@@H]2Nc2ccc(C(F)(F)F)cn2)n1 [Example 8, 2-(3-Methyl-1,2,4-oxadiazol-5-yl)-N-[(1S,2S)-2-{[5-(trifluoromethyl)pyridin-2-yl]amino}cyclopentyl]benzamide]
> 10000 nM	32 nM	O=C(N[C@H]1CCC[C@@H]1Nc1cnc(C(F)(F)F)cn1)c1c(F)cccc1-n1nccn1 [Example 32, 2-Fluoro-6-(2H-1,2,3-triazol-2-yl)-N-[(1S,2S)-2-{[5-(trifluoromethyl)pyrazin-2-yl]amino}cyclopentyl]benzamide]
> 10000 nM	58 nM	Cc1ccc(-n2nccn2)c(C(=O)N[C@H]2CCC[C@@H]2Nc2ncc(C(F)(F)F)cn2)c1 [Example 3, 5-Methyl-2-(2H-1,2,3-triazol-2-yl)-N-[(1S,2S)-2-{[5-(trifluoromethyl)pyrimidin-2-yl]amino}cyclopentyl]benzamide]
> 10000 nM	49 nM	O=C(N[C@H]1CCC[C@@H]1Nc1ncc(C(F)(F)F)nc1C1CC1)c1ncccc1-c1ncccn1 [Example 143, N-[(1S,2S)-2-{[3-Cyclopropyl-5-(trifluoromethyl)pyrazin-2-yl]amino}cyclopentyl]-3-(pyrimidin-2-yl)pyridine-2-carboxamide]
> 10000 nM	80 nM	COc1cccc(-n2cccn2)c1C(=O)N[C@H]1CCC[C@@H]1Nc1cnc(C(F)(F)F)cn1 [Example 50, 2-Methoxy-6-(1H-pyrazol-1-yl)-N-[(1S,2S)-2-{[5-(trifluoromethyl)pyrazin-2-yl]amino}cyclopentyl]benzamide]
> 10000 nM	53 nM	O=C(N[C@H]1CCC[C@@H]1Nc1cnc(C(F)(F)F)cn1)c1ccccc1-n1nccn1 [Example 17, 2-(2H-1,2,3-Triazol-2-yl)-N-[(1S,2S)-2-{[5-(trifluoromethyl)pyrazin-2-yl]amino}cyclopentyl]benzamide]
> 10000 nM	24 nM	Cc1cc(C(F)(F)F)cnc1N[C@H]1CCC[C@@H]1NC(=O)c1ccccc1-n1nccn1 [Example 108, N-[(1S,2S)-2-{[3-Methyl-5-(trifluoromethyl)pyridin-2-yl]amino}cyclopentyl]-2-(2H-1,2,3-triazol-2-yl)benzamide]
> 10000 nM	340 nM	Cc1ccc(-n2nccn2)c(C(=O)N[C@H]2CCC[C@@H]2Nc2cnc(Cl)cn2)c1 [Example 9, N-[(1S,2S)-2-[(5-Chloropyrazin-2-yl)amino]cyclopentyl]-5-methyl-2-(2H-1,2,3-triazol-2-yl)benzamide]
> 10000 nM	38 nM	O=C(N[C@H]1CCC[C@@H]1Nc1cnc(C(F)(F)F)cn1)c1cc(C2CC2)ccc1-n1nccn1 [Example 57, 5-Cyclopropyl-2-(2H-1,2,3-triazol-2-yl)-N-[(1S,2S)-2-{[5-(trifluoromethyl)pyrazin-2-yl]amino}cyclopentyl]benzamide]
> 10000 nM	852 nM	CCOc1cccnc1C(=O)N[C@H]1CCC[C@@H]1Nc1cnc(C(F)(F)F)cn1 [Example 60, 3-Ethoxy-N-[(1S,2S)-2-{[5-(trifluoromethyl)pyrazin-2-yl]amino}cyclopentyl]pyridine-2-carboxamide]
> 10000 nM	39 nM	O=C(N[C@H]1CCC[C@@H]1Nc1ncc(C(F)(F)F)cc1F)c1ccccc1-n1nccn1 [Example 105, N-[(1S,2S)-2-{[3-Fluoro-5-(trifluoromethyl)pyridin-2-yl]amino}cyclopentyl]-2-(2H-1,2,3-triazol-2-yl)benzamide]
> 10000 nM	99 nM	O=C(N[C@H]1CCC[C@@H]1Nc1ccc(C(F)(F)F)cn1)c1ccccc1-c1ncccn1 [Example 13, 2-(Pyrimidin-2-yl)-N-[(1S,2S)-2-{[5-(trifluoromethyl)pyridin-2-yl]amino}cyclopentyl]benzamide]

From US9156829B2, “Cycloalkyl and heterocycloalkyl compounds as orexin receptor antagonists” (Takeda Pharmaceutical Company Limited, priority 2014, dated 2015)
